Entries after “also recorded” stand apart in the source; their conditions may differ.
Assays:
5F cells (5F HSPCs) = assay: Primary screen of Cayman epigenetic library in 5F cells, stromal-free T cell differentiation (proT readout); format: cell-based, human; conditions: for CD5+ CD7+ %: 5F cells, control cells 11.60%; for CD5+ CD7+ % / Z score: e.g., at 500 nM; for Z score: calculated from the number of T progenitors after treatment, Z score greater than 3 = primary hit; for proT cells generated from 5F HSPCs after treatment with primary hits (fold change / number): first screen, FIG. 8
Description: FIG. 6 is a schematic showing a primary screen for small molecule inhibitors of epigenetic factors that promote T cell specification, using the stromal-free T cell differentiation methods as described herein. “5F cells” refer to cells expressing 5 transcription factors (HOXA9, ERG, RORA, SOX4, and MYB). The Cayman epigenetic library contains more than 140 small molecules that are known to modulate the activity of a variety of epigenetic ‘writers and erasers’ and ‘reader’ proteins. It may include compounds that modulate the activity of methyltransferases, demethylases, histone acetyltransferases, histone deacetylases, and acetylated histone binding proteins; see e.g., caymanchem.com/product/11076/epigenetics-screening-library-(96-well).
FIG. 7 is a scatterplot showing identification of primary hits from the screen described in FIG. 6. Z scores were calculated for all the small molecules based on the number of T progenitors after treatment. Any small molecule with a Z score greater that 3 was considered as a primary hit. See e.g., Table 2.
FIG. 8 is a bar chart showing fold change of the proT cells generated from 5F HSPCs after treatment with primary hits identified in FIG. 7 (see e.g., Table 2).
(§1) A group of epigenetic regulators were tested for their ability to promote T cell differentiation. […] UNCO224 is an inhibitor of G9a/GLP, so a variety of other G9a/GLP inhibitors were tested.

[1] = test system: iPSC-derived CD34+ hemogenic endothelial (HE) cells; assay: Second screen and dose response in wild type iPSC-derived CD34+ hemogenic endothelial (HE) cells, stromal-free T cell differentiation; format: cell-based, human; conditions: for proT cells generated from CD34+ HE cells after treatment with G9a inhibitors at different doses: FIG. 13B-13F; for Exemplary effective dose(s): promotion of T cell differentiation from CD34+ HE cells, 13B-13F
Experimental: FIG. 9 is a schematic showing a second screen using wild type iPSC-derived CD34+ hemogenic endothelial (HE) cells (not 5F HSPCs, e.g., as used in […] and Table 2), to test small molecule inhibitors of epigenetic factors for promotion of T cell differentiation.
FIG. 10A-10B is a series of graphs showing the results of the screen from FIG. 9. FIG. 10A is a scatterplot of Z scores, which were calculated for all the small molecules based on the number of T progenitors after treatment. Any small molecule with a Z score greater that 3 was considered as a primary hit. FIG. 10B is a bar graph showing verification of the primary hits. Primary hits were tested in triplicate.
FIG. 12A is a schematic summarizing the experiments (see e.g., FIG. 6-11, Table 2). FIG. 12B is a bar chart showing fold change of proT cells generated from CD34^+ HE cells after treated with UNCO224 at different doses.
FIG. 13A-13F is a series of schematics and graphs showing that G9 inhibitors promote T cell differentiation using the stromal-free differentiation methods as described herein. FIG. 13A is a schematic summarizing the experiments (see e.g., FIG. 6-12, Table 2). FIGS. 13B-13E are a bar charts showing fold change of proT cells generated from CD34^+ HE cells after treatment with other G9a inhibitors at different doses.
as §1

[2] = test system: class I HDAC (e.g., HDAC1, HDAC2, HDAC3); conditions: cited from earlier work
[3] = molecular target: class III isoenzyme SIRT1 (Homo sapiens, UniProt Q96EB6); conditions: cited from earlier work
HDAC = conditions: pan-HDAC, with exception for HDAC6; cited from earlier work
CD34+ CD45+ HSPC cells = assay: T cell differentiation of CD34+ CD45+ HSPCs after UNC0224 treatment; format: cell-based, human
Experimental: (§2) FIG. 14A-14C is a series of schematics and graphs showing that UNCO224 enhances T cell commitment at expense of erythroid/myeloid potential. FIG. 14A is a schematic showing a test of whether UNCO224 specifically affects T cell differentiation. iPSC-derived CD34+ HE cells were treated with UNCO224 and differentiated into CD34+ CD45+ hematopoietic stem and progenitor cells (HSPC). These HSPCs were used to generate T cells, erythroid cells, and myeloid cells to determine their multipotency. FIG. 14B is a bar chart showing fold change of proT cells generated from CD34+ CD45+ HSPC cells after treatment with UNCO224 (500 nM). […] FIG. 14C is a bar chart showing number of different types of colonies generated from CD34+ CD45+ HSPCs in a colony-forming unit (CFU) assay. E, erythroid; M, macrophage; G, granulocyte; GM, granulocyte/macrophage; GEMM, granulocyte/erythroid/macrophage/megakaryocyte.
FIG. 15A-15C is a series of graphs showing that UNCO224 promotes T cell specification rather than cell proliferation. FIG. 14B is a bar chart showing fold change of proT cells generated from CD34+ CD45+ HSPC cells after treatment with UNCO224 (500 nM). […] FIG. 14B is a bar chart showing fold change of total cell numbers after 14 days of T cell differentiation of CD34+ CD45+ HSPCs treated with DMSO or UNCO224. […] FIG. 14C is a bar chart showing the percentage of proT cells generated from CD34+ CD45+ HSPCs treated with DMSO or UNCO224. […] N=3, **** P≤0.0001.
UNCO224 enhanced T cell commitment at expense of erythroid/myeloid potential. […] UNCO224 also promoted T cell specification rather than cell proliferation. […] Without wishing to be bound by theory, it is anticipated that H3K9 methylation mediates repression of lymphoid genes. As such, treatment with inhibitors of H3K9 methylation (see e.g., FIG. 6-16, Tables 2-3) promotes T cell differentiation, e.g., when using stromal-free T cell differentiation methods as described herein. Such H3K9 methylation inhibitors can be used in place of, or in combination with, inhibition of histone methyltransferases (e.g., EZH1 knockdown).

CD34+ CD45+ HSPCs = assay: Colony-forming unit (CFU) assay of CD34+ CD45+ HSPCs; format: cell-based, human; conditions: FIG. 14C
Experimental: as §2
UNCO224 enhanced T cell commitment at expense of erythroid/myeloid potential. […] UNCO224 also promoted T cell specification rather than cell proliferation. […] Without wishing to be bound by theory, it is anticipated that H3K9 methylation mediates repression of lymphoid genes. As such, treatment with inhibitors of H3K9 methylation (see e.g., FIG. 6-16, Tables 2-3) promotes T cell differentiation, e.g., when using stromal-free T cell differentiation methods as described herein. […]

MDA-MB-231 cells = conditions: in MDA-MB-231 cells; cited from earlier work

Sequence of class III isoenzyme SIRT1 (Q96EB6 whole entry): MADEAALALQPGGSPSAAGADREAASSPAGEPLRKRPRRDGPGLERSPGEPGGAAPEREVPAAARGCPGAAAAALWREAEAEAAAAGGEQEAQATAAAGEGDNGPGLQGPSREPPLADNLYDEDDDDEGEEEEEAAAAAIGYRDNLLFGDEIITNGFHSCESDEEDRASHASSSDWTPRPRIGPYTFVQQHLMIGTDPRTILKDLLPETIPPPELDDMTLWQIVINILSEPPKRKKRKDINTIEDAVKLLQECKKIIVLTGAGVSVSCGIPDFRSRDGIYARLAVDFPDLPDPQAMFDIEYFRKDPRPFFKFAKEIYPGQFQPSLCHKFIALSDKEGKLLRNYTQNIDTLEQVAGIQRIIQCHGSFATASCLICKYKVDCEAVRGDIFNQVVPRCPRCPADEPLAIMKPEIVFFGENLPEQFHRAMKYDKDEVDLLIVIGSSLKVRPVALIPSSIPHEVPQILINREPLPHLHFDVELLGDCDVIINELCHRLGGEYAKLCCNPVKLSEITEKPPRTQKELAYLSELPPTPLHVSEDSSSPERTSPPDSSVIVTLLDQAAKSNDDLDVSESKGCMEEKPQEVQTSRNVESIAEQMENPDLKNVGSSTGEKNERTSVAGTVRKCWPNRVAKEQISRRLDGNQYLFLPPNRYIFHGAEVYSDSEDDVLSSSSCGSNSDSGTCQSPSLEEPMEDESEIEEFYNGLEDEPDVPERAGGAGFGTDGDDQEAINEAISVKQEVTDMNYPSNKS

Molecule | CD5+ CD7+ % (5F cells (5F HSPCs)) [%] | Z score (5F cells (5F HSPCs)) | other results
O=C(CCCCCCC(=O)Nc1ccc(I)cc1)NO [4-iodo-SAHA] | 25.3 | 5.895 | –
COc1cc2nc(N3CCCN(C)CC3)nc(NC3CCN(Cc4ccccc4)CC3)c2cc1OC [BIX01294] | – | – | proT cells generated from CD34+ HE cells after treatment with G9a inhibitors at different doses [1]: capable of promoting T cell differentiation; also recorded: significantly increased; Exemplary effective dose(s) ([1]; FIG. 12B): 200 nM
COC(=O)c1ccc2c(c1)nc(NC(=O)c1ccccc1)n2CCCc1ccccc1 [BRD4770] | – | – | proT cells generated from CD34+ HE cells after treatment with G9a inhibitors at different doses [1]: capable of promoting T cell differentiation; also recorded: significantly increased; Exemplary effective dose(s) ([1]; FIG. 12B): 200 nM
CN(C)c1ccc(C(=O)NCCCCCC(=O)NO)cc1 [CAY10398] | 36.9 | 4.181 | –
COCCCn1c(N)c(C(=O)NC2CCCC2)c2nc3ccccc3nc21 [CAY10591] | 25.9 | 8.576 | proT cells generated from 5F HSPCs after treatment with primary hits (fold change / number) (5F cells (5F HSPCs)): significantly increased; also recorded: confirmed to promote T cell specification
Cn1cc(/C=C/C(=O)c2cccc(F)c2)cc1/C=C/C(=O)NO [MC1568] | 14.0 | 5.829 | inhibition of class I HDAC activity [2]: Class II HDAC (e.g., HDAC4 and HDAC5) inhibitor. Displays no inhibition of class I HDAC activity (e.g., HDAC1, HDAC2, HDAC3).; proT cells generated from 5F HSPCs after treatment with primary hits (fold change / number) (5F cells (5F HSPCs)): significantly increased; also recorded: confirmed to promote T cell specification
O=C(CCCCCCC(=O)Nc1cccnc1)NO [Pyroxamide] | 11.6 | 3.122 | –
CNCc1ccc(-c2[nH]c3cc(F)cc4c3c2CCNC4=O)cc1 [Rucaparib] | 37.2 | 0.4679 | –
O=C(CCCCCCC(=O)Nc1ccccc1)NO [SAHA, suberoylanilide hydroxamic acid] | 34.7 | 7.987 | –
CCCCc1nc2cc(/C=C/C(=O)NO)ccc2n1CCN(CC)CC [SB939] | 39.4 | 5.042 | activity against SIRT1 [3]: no activity; IC50 (HDAC): 40 to 140 nM
Cc1cc(Nc2ccc(NC(=O)c3ccc(Nc4ccnc5ccccc45)cc3)cc2)nc(N)n1 [SGI-1027] | 19.9 | 0.09357 | –
O=C(CCCCCN1C(=O)c2cccc3cccc(c23)C1=O)NO [Scriptaid] | 19.7 | 3.857 | –
COc1cc2c(NC3CCN(C)CC3)nc(N3CCCN(C)CC3)nc2cc1OCCCN(C)C [UNC0224] | 15.0 | 3.475 | proT cells generated from 5F HSPCs after treatment with primary hits (fold change / number) (5F cells (5F HSPCs); listed as UNCO224): significantly increased; also recorded: confirmed to promote T cell specification; fold change of CD5+ CD7+ proT cells generated from CD34+ CD45+ HSPC cells (CD34+ CD45+ HSPC cells; UNC0224 500 nM vs DMSO, FIG. 14B/15A): significant increase; fold change of total cell numbers (CD34+ CD45+ HSPC cells; after 14 days of T cell differentiation, vs DMSO): significant decrease; percentage of CD5+ CD7+ proT cells (CD34+ CD45+ HSPC cells; vs DMSO, N=3): significant increase; proT cells generated from CD34+ HE cells after treatment with G9a inhibitors at different doses [1]: capable of promoting T cell differentiation; fold change of proT cells generated from CD34+ HE cells at different doses ([1]; dose response, FIG. 12B): dose-dependent manner; proT cells generated from CD34+ HE cells (verification of primary hits) ([1]; second screen, primary hits tested in triplicate, FIG. 10B, listed as UNCO224): significantly increased; also recorded: significant increase; number of erythroid or myeloid lineage colonies (CD34+ CD45+ HSPCs): significant decrease
COc1cc2c(NC3CCN(CC4CCCCC4)CC3)nc(N3CCCN(C(C)C)CC3)nc2cc1OCCCN1CCCCC1 [UNC0631] | – | – | IC50 (MDA-MB-231 cells): 25 nM
COc1cc2c(NC3CCN(C(C)C)CC3)nc(C3CCCCC3)nc2cc1OCCCN1CCCC1 [UNC0638] | – | – | proT cells generated from CD34+ HE cells after treatment with G9a inhibitors at different doses [1]: capable of promoting T cell differentiation; also recorded: significantly increased; Exemplary effective dose(s) ([1]; FIG. 12B): 8 nM
COc1cc2c(NC3CCN(C(C)C)CC3)nc(N3CCC(F)(F)CC3)nc2cc1OCCCN1CCCC1 [UNC0642] | – | – | proT cells generated from CD34+ HE cells after treatment with G9a inhibitors at different doses [1]: capable of promoting T cell differentiation; also recorded: significantly increased; Exemplary effective dose(s) ([1]; FIG. 12B): 40 nM
COc1cc2c(NC3CCN(C4CCCCC4)CC3)nc(N3CCCN(C(C)C)CC3)nc2cc1OCCCN1CCCCC1 [UNC0646] | – | – | IC50 (MDA-MB-231 cells): 26 nM
CC(C)C(C(=O)Nc1ccc(C(=O)NO)cc1)c1ccccc1 (stereo not shown) [s-HDAC-42] | 43.2 | 4.263 | –
Oxamflatin [Oxaflatin] | 12.4 | 6.54 | –

From patent publication US20230073449A1, “STROMA-FREE T CELL DIFFERENTIATION FROM HUMAN PLURIPOTENT STEM CELLS” (THE CHILDREN'S MEDICAL CENTER CORPORATION, priority 2020, published 2023)
